Series [1] in a line: Compound stability in whole mouse blood. It is filed as in vitro ADME. The conditions noted are these: fresh mouse blood, initial concentration 1.44 μM, 37° C., test (parent) compound at 4 h. On the procedure:
Compounds were also evaluated for stability in whole mouse blood. A sample of test compound in fresh mouse blood (at a concentration of 1.44 μM) was incubated at 37° C. for 4 h. An aliquot of the sample was withdrawn, at time 5 min. and time 4 h, for concentration analysis on a LC-MS/MS instrument after converting the blood sample to an analytical sample employing standard sample preparation procedures. The detailed recovery of the compound was not fully evaluated and optimized. The sample was analyzed for the parent compound and the therapeutic compound.

Series [2] in a line: Pharmacokinetic study in C57Bl6 mice. It is filed as in vivo. Further details: AUC(0-t): concentration or dose not given beside the values. The conditions noted are these: mouse, oral gavage, plasma, prodrug; for AUC(0-t): read-out: Prodrug AUCt; for half-life: read-out: Prodrug T1/2 (converted). The protocol: (§1) Forty-two male ICR mice, body-weight of 19 to 21 g, are randomized into 7 groups. The animals are administered with an aqueous solution of a test compound by oral gavage. Blood samples are collected into tubes pre-loaded with heparin anticoagulating agent, at time 0.167, 0.5, 1, 2, 4, 8, and 12 h after administration. Blood samples are centrifuged, and plasma samples are isolated for analysis of the test compound (including compounds administered, metabolites, and/or prodrugs). A 400 μL blood sample is collected from each animal, and then the animal is put to sleep with barbiturate anesthesia; perfusion is performed (through the main vein of the heart) with saline at a rate of 5 mL/min., for 6 min. The brain is collected and kept at −40° C. until the sample is analyzed. The protein in the plasma is precipitated and the analytical sample is analyzed on an AB4000-Q-Trap UPLC-MS/MS instrument.
Pharmacokinetic studies were performed in C57B16 mice. The experiments were done using the same protocol described in Example 20. For each compound, 42 animals were used (6 animals per time point, and 7 time points distributed at 10 min, 0.5, 1, 2, 4, 8 and 12 h).

Series [3] is described as follows: Compound stability in simulated gastric fluid (SGF). It is filed as in vitro ADME. Conditions: 400 μg/mL, 37° C., percentage of initial concentration, LC-MS/MS. The protocol: Compounds were evaluated for stability in simulated gastric fluid (SGF). A solution of a compound in SGF (400 μg/mL) was incubated at 37° C. for 4 h. An aliquot of the sample was withdrawn, at time 0 and time 4 h, for concentration analysis on a LC-MS/MS instrument. The initial concentration (at time 0) of a compound was considered as 1, and the remaining concentration of the compound at 4-h time point was calculated and expressed as the percentage of the initial concentration.

Series [4] in a line: Pharmacokinetic study in ICR mice, oral (FIGS. 1 and 2). In kind it is in vivo. Conditions: for concentration of metabolite (2-carboxy-1-ethanesulfonic acid) in plasma compared to 3APS (of natural abundance): 0.72 mmol/kg, 2 h; for drug metabolism compared to 3APS (of natural abundance) / plasma drug exposure compared to 3APS (of natural abundance): mole-equivalent dose (0.72 mmol/kg). On the procedure: A compound according to the invention is dissolved in water at a concentration determined by the desired dose and dosing volume for the specific animal to which the compound is to be administered. A calculated volume of dosing solution is administered to the animal (PO, SQ, IP, or IV). A blood sample is collected following administration of the compound at specific time points (such as 10 min., 30 min., 1 h, 2 h, 4 h, 8 h, and 12 h). The blood sample is converted to a plasma sample using standard techniques. A brain sample can also be collected after complete perfusion. The plasma and/or brain samples are analyzed to determine the concentration of relevant compounds (including e.g., administered compounds, therapeutic compounds (e.g., drugs) and metabolites).
as §1

“Also recorded” adds a separate entry of the source. Counter-ions that a name gives are not always drawn.

Results on eleven compounds are retold here after patent US10954188B2, “Isotope-enriched 3-amino-1-propanesulfonic acid derivatives and uses thereof” (RISEN (SUZHOU) PHARMA TECH CO., LTD., priority 2017, dated 2021).

As usually defined, the Cmax is the maximum level reached in the sampled fluid or tissue.

With `[2H]C([2H])(CCS(=O)(=O)O)NC(=[18O])[C@@H](N)C(C)C` [Compound 29, 3-((^18O-L-valyl)amino)-3,3-dideuterium-1-propanesulfonic acid], the “Compound conc. (μM) at 4 h” value in series [1] stood at 0.80 µM.

Consider `[2H]C([2H])(CCS(=O)(=O)O)NC(=O)[C@@H](N)Cc1c[nH]cn1` [Compound 6, 3-((L-histidyl)amino)-3,3-dideuterium-1-propanesulfonic acid hydrochloride], for which, in series [2], the Cmax is 9920 ng/mL, the AUC(0-t) amounted to 16600 ng·h/mL and the half-life was 1.4 h.

As for `[2H]C([2H])(CCS(=O)(=O)O)NC(=O)[C@@H](N)Cc1ccccc1` [Compound 5, 3-((L-phenylalanyl)amino)-3,3-dideuterium-1-propanesulfonic acid], the “Remaining (%) at 4 h” value in series [3] is 99%. Besides, in series [2], the Cmax turned out to be 1090 ng/mL, the AUC(0-t) was found to be 782 ng·h/mL and the half-life is 0.4 h. Besides, in series [1], the “Compound conc. (μM) at 4 h” value stood at 0.03 µM.

Consider `CC(C)[C@H](N)C(=[18O])NCCCS(=O)(=O)O` [Compound 15, 3-((^18O-L-valyl)amino)-1-propanesulfonic acid], for which the “Remaining (%) at 4 h” value in series [3] is on record as 104%. In addition, the “Compound conc. (μM) at 4 h” value in series [1] was 0.78 µM.

For the compound `C[C@H](N)C(=[18O])NCCCS(=O)(=O)O` [Compound 13, 3-((^18O-L-alanyl)amino)-1-propanesulfonic acid], in series [2], the Cmax worked out at 672 ng/mL, the AUC(0-t) was 1830 ng·h/mL and the half-life is 0.5 h.

For `[2H]C([2H])(N)CCS(=O)(=O)O` [Compound 1, 3-amino-3,3-dideuterium-1-propanesulfonic acid], in series [3], the “Remaining (%) at 4 h” value is given as “(100) %”. Further, in series [4], the “concentration of metabolite (2-carboxy-1-ethanesulfonic acid) in plasma compared to 3APS (of natural abundance)” value is “much lower”, the “drug metabolism compared to 3APS (of natural abundance)” value is given as “delayed drug metabolism; also recorded: delayed metabolic profile” and the “plasma drug exposure compared to 3APS (of natural abundance)” value is “improved plasma drug exposure significantly”. Further, the “Compound conc. (μM) at 4 h” value in series [1] came out at 0.98 µM.

`N[C@@H](Cc1c[nH]cn1)C(=[18O])NCCCS(=O)(=O)O` [Compound 17, 3-((^18O-L-histidyl)amino)-1-propanesulfonic acid hydrobromide]: in series [3], the “Remaining (%) at 4 h” value is 101%. In series [2], the Cmax worked out at 19000 ng/mL, the AUC(0-t) is 14200 ng·h/mL and the half-life is 1.1 h. For the same compound, in series [1], the “Compound conc. (μM) at 4 h” value was determined as 1.20 µM.

Regarding `[2H]C([2H])(CCS(=O)(=O)O)NC(=O)[C@H](C)N` [Compound 2, 3-((L-alanyl)amino)-3,3-dideuterium-1-propanesulfonic acid], in series [2], the Cmax came out at 472 ng/mL, the AUC(0-t) turned out to be 348 ng·h/mL and the half-life is 0.6 h. In addition, the “Compound conc. (μM) at 4 h” value in series [1] is 0.18 µM.

On to `[2H]C([2H])(CCS(=O)(=O)O)NC(=O)[C@@H](N)C(C)C` [Compound 4, 3-((L-valyl)amino)-3,3-dideuterium-1-propanesulfonic acid], for which, in series [3], the “Remaining (%) at 4 h” value is 107%. Also, in series [2], the Cmax was 39500 ng/mL, the AUC(0-t) amounted to 38000 ng·h/mL and the half-life is 1.5 h. Besides, in series [4], the “concentration of metabolite (2-carboxy-1-ethanesulfonic acid) in plasma compared to 3APS (of natural abundance)” value was “much lower”, the “drug metabolism compared to 3APS (of natural abundance)” value was “delayed drug metabolism” and the “plasma drug exposure compared to 3APS (of natural abundance)” value is “improved plasma drug exposure significantly; also recorded: even greater improvement of drug exposure”. Moreover, the “conversion of prodrug to compound 1 in the subject” value in series [4] (plasma) was “converted easily to 1”. In series [1], the “Compound conc. (μM) at 4 h” value is 0.74 µM.

Take `N[C@@H](Cc1ccccc1)C(=[18O])NCCCS(=O)(=O)O` [Compound 16]: the “Remaining (%) at 4 h” value in series [3] is 96%. For the same compound, in series [2], the Cmax worked out at 3840 ng/mL, the AUC(0-t) amounted to 11900 ng·h/mL and the half-life is 1.5 h. Further, the “Compound conc. (μM) at 4 h” value in series [1] worked out at 0.74 µM.

Turning to `[2H]C([2H])(CCS(=O)(=O)O)NC(=O)[C@@H](N)CO` [Compound 3, 3-(L-serylamino)-3,3,-dideuterium-1-propanesulfonic acid], in series [2], the Cmax was 22300 ng/mL, the AUC(0-t) came out at 44700 ng·h/mL and the half-life is 1.9 h.
